# In US20240238425A1, “HSD17B13 Inhibitors and/or Degraders” (Pfizer Inc., priority 2022, published 2024):
# Counter-ions that a name gives are not always drawn.
# Test system: HiBiT-HSD17β13 fusion protein (N-terminal HiBiT-tagged HSD17β13 isoform D) in Huh7 HiBiT-HSD17β13 OE cells
# Experiment: Whole-cell Huh7-HSD17B13 HiBiT assay (degrader potency and maximal efficacy, luminescence readout)
# Type: cell-based, human
# Details: 24 hour incubation, geometric mean, * = geometric mean for all forms tested (parent and salt forms); for DC50: read-out: Huh7_HIBIT-HSD17β13_DC50 GMean DC50; for Huh7_HIBIT-HSD17β13_DC50 GMean Asymptote Maximum: max. concentration 1 μM
# How it was run: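 Huh7 cells stably overexpressing N-terminal HiBiT-tagged HSD17β13 isoform D, clone matched to primary hepatocyte expression, were exposed to an 11-point, 1 in 3.162 dilution series (top 1 μM final) for 24 h at 37° C. Lytic HiBiT luminescence was normalised to DMSO and parental-cell controls; DC50 from four-parameter logistic fit, with CellTiter-Glo counter screen.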
Structure (SMILES),DC50 [nM],Huh7_HIBIT-HSD17β13_DC50 GMean Asymptote Maximum [%]
"Cn1c(=O)n(C2CCC(=O)NC2=O)c2ccc(CCCN3CCN(c4cc5cn([C@H]6CC[C@H](CNC(=O)c7cc(F)c(O)c(F)c7F)CC6)nc5cn4)CC3)cc21 (mixture of isomers) [Example 93, N-{[(1r,4r)-4-{5-[4-(3-{1-[(3RS)-2,6-dioxopiperidin-3-yl]-3-methyl-2-oxo-2,3-dihydro-1H-benzimidazol-5-yl}propyl)piperazin-1-yl]-2H-pyrazolo[3,4-c]pyridin-2-yl}cyclohexyl]methyl}-2,3,5-trifluoro-4-hydroxybenzamide, formate salt]",0.69,83
"Cn1c(=O)n(C2CCC(=O)NC2=O)c2ccc(CCCN3CCOC4(C3)CN(c3ccc5cn([C@H]6CC[C@H](CNC(=O)c7cc(F)c(O)c(F)c7F)CC6)nc5c3)C4)cc21 (mixture of isomers) [Example 98, N-{[(1r,4r)-4-{6-[8-(3-{1-[(3RS)-2,6-dioxopiperidin-3-yl]-3-methyl-2-oxo-2,3-dihydro-1H-benzimidazol-5-yl}propyl)-5-oxa-2,8-diazaspiro[3.5]nonan-2-yl]-2H-indazol-2-yl}cyclohexyl]methyl}-2,3,5-trifluoro-4-hydroxybenzamide, trifluoroacetate salt]",0.82,78
"Cn1c(=O)n(C2CCC(=O)NC2=O)c2ccc(CCCN3CCn4cc(-c5ccc6cn([C@H]7CC[C@H](CNC(=O)c8cc(F)c(O)c(F)c8F)CC7)nc6c5)nc4C3)cc21 (mixture of isomers) [Example 100, N-{[(1r,4r)-4-{6-[7-(3-{1-[(3RS)-2,6-dioxopiperidin-3-yl]-3-methyl-2-oxo-2,3-dihydro-1H-benzimidazol-5-yl}propyl)-5,6,7,8-tetrahydroimidazo[1,2-a]pyrazin-2-yl]-2H-indazol-2-yl}cyclohexyl]methyl}-2,3,5-trifluoro-4-hydroxybenzamide, formate salt]",2.2,84

# These reach a lower DC50. Values come first.
DC50 [nM],Structure (SMILES),Huh7_HIBIT-HSD17β13_DC50 GMean Asymptote Maximum [%]
0.4,"Cn1c(=O)n(C2CCC(=O)NC2=O)c2ccc(CCCN3CCN(c4ccc(-c5ccc6cn([C@H]7CC[C@H](CNC(=O)c8cc(F)c(O)c(F)c8F)CC7)nc6c5)cn4)CC3)cc21 (mixture of isomers) [Example 92, N-{[(1r,4r)-4-(6-{6-[4-(3-{1-[(3RS)-2,6-dioxopiperidin-3-yl]-3-methyl-2-oxo-2,3-dihydro-1H-benzimidazol-5-yl}propyl)piperazin-1-yl]pyridin-3-yl}-2H-indazol-2-yl)cyclohexyl]methyl}-2,3,5-trifluoro-4-hydroxybenzamide]",87
0.21,"Cn1c(=O)n(C2CCC(=O)NC2=O)c2ccc(CCCN3CCN(c4ccc5cn([C@]67CC[C@](CNC(=O)c8cc(F)c(O)c(F)c8F)(CC6)CC7)nc5c4)CC3)cc21 (mixture of isomers) [Example 94, N-[(4-{6-[4-(3-{1-[(3RS)-2,6-dioxopiperidin-3-yl]-3-methyl-2-oxo-2,3-dihydro-1H-benzimidazol-5-yl}propyl)piperazin-1-yl]-2H-indazol-2-yl}bicyclo[2.2.2]octan-1-yl)methyl]-2,3,5-trifluoro-4-hydroxybenzamide]",84
0.24,"Cn1c(=O)n(C2CCC(=O)NC2=O)c2ccc(CCCN3CCN(c4ncc(-c5ccc6cn([C@]78CC[C@](CNC(=O)c9cc(F)c(O)c(F)c9F)(CC7)CC8)nc6c5)cn4)CC3)cc21 (mixture of isomers) [Example 95, N-{[4-(6-{2-[4-(3-{1-[(3RS)-2,6-dioxopiperidin-3-yl]-3-methyl-2-oxo-2,3-dihydro-1H-benzimidazol-5-yl}propyl)piperazin-1-yl]pyrimidin-5-yl}-2H-indazol-2-yl)bicyclo[2.2.2]octan-1-yl]methyl}-2,3,5-trifluoro-4-hydroxybenzamide, trifluoroacetate salt]",80
